For assay [1], the target named is T1, MOR–Rluc8 and Gαi1β1γ2–GFP2 (Homo sapiens, UniProt P35372+P63096). The format is cell-based.
Assay [2] concerns the target T1, MOR–Rluc8 and Gαi1β1γ2–GFP2. Type of assay: cell-based. The following applies: MOR in the apo state, mean ± s.d.

Among the data in PMC12711574 (Nature, 2025) are signal changes and EC50 values, retold here.

The structures appear in SMILES notation. Where two headings read alike, the source gives them in different places.

T1 sequence (P63096 2-354 limits assumed): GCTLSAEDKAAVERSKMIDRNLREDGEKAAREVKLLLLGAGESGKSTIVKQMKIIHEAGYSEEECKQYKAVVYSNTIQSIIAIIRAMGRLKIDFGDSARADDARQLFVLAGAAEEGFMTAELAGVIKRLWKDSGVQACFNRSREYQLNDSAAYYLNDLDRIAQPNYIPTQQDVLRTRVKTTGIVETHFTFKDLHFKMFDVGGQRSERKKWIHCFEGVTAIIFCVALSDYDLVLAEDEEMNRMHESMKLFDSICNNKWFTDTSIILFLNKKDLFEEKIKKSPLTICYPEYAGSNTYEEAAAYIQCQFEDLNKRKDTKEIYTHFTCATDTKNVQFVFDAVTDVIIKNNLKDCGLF
T1 sequence (P35372 whole entry): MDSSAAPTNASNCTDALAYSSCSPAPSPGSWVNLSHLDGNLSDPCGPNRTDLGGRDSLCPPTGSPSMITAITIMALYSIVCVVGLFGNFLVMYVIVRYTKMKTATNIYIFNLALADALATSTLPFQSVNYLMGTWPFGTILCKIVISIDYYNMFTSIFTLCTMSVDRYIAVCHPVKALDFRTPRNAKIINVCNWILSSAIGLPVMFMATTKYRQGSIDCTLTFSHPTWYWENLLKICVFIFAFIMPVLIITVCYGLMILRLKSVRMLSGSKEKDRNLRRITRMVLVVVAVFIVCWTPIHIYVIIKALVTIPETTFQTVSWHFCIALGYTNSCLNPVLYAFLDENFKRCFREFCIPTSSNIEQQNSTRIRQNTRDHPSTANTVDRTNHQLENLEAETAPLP
T1 sequence (P62873 2-340 partner limits assumed): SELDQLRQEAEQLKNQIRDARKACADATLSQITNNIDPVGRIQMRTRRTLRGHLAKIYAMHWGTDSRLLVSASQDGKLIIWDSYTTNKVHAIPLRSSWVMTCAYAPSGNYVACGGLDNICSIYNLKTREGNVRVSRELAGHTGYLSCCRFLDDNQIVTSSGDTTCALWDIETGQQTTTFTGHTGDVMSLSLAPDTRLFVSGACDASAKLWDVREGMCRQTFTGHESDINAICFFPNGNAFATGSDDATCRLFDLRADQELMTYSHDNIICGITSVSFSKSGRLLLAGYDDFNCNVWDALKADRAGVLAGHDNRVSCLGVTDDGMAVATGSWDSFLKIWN
T1 sequence (P59768 2-68 partner limits assumed): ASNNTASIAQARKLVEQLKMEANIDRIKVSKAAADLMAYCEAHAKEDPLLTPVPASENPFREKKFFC

In the case of `C[C@H]1CN(C[C@H](Cc2ccccc2)C(=O)NCC(=O)O)CC[C@@]1(C)c1cccc(O)c1` [Alvimopan], the signal changes result in assay [1] is given as “too small to interpret”.
Turning to `Nc1nc2c(ncn2[C@@H]2O[C@H](COP(=O)(O)OP(O)(O)=S)[C@@H](O)[C@H]2O)c(=O)[nH]1` [GDPβS], in assay [2] (read-out: GDPβS EC50), the EC50 (usually the concentration needed to bring the measured effect to its halfway point) was 57 ± 14 nM.
As to `Nc1nc2c(ncn2[C@@H]2O[C@H](COP(=O)(O)OP(=O)(O)OP(O)(O)=S)[C@@H](O)[C@H]2O)c(=O)[nH]1` [GTPγS], the EC50 in assay [2] (read-out: GTPγS EC50) turned out to be 3.8 ± 0.18 nM.
